As a reminder, the IC50 is the midpoint of a concentration-inhibition curve. Usually ED50 stands for the dose that gives a 50% effect, or the effect in half of the subjects.

These results are taken from patent US20070142417A1, “Substantially Pure 2-{[2-(2-Methylamino-Pyrimidin-4-YL)-1H-Indole-5-Carbonyl]-Amino}-3-Phenylpyridin-2-YL-Amino)-Propionic Acid as an IkB Kinase Inhibitor” (AVENTIS PHARMACEUTICALS INC, priority 2005, published 2007).

Where two headings read alike, the source gives them in different places.

Data set [1] deals with T1, IκB kinase (IKK enzyme preparation) (Homo sapiens, UniProt O14920).
T1 sequence (O14920 1-756): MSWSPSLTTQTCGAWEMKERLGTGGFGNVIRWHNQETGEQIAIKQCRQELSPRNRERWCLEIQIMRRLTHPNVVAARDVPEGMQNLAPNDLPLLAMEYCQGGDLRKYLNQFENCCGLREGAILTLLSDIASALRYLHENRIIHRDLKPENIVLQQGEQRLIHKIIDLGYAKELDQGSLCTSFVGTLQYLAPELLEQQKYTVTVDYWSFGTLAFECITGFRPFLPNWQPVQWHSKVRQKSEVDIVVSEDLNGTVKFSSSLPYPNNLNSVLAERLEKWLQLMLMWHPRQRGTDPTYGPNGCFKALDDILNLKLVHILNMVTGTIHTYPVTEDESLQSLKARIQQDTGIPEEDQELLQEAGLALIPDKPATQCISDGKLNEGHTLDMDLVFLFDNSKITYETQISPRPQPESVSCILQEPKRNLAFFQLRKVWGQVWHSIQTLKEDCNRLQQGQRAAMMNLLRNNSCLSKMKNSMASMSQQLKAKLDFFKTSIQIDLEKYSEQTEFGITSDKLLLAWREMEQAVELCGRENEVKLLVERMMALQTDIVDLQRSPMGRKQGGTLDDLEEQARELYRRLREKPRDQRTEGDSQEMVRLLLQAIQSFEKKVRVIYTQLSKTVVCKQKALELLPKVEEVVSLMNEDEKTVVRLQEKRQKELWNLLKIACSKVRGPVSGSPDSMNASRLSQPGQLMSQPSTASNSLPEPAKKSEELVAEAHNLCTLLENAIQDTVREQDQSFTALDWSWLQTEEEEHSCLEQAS
Nature of the data set: IKK-Enzyme ELISA. The class given is biochemical. How it is done:
The assay buffer has the following composition (50 mM HEPES, 10 mM MgCl2, 10 mM β-Glycerophosphate, 2 μM Microcystin-LR, 0.01% NP-40, 5 mM DTT).
The IKK enzyme preparation was diluted 1:50 (in-house-made preparation) plus test compound in DMSO (final concentration in well: 2%).
The assay procedures were as follows:
Incubation of enzyme and compound for 30 min;
pSer36-IkB Peptide (Substrate): 40 μM;
Incubation for 45 min and Addition of anti-pSer32-pSer36-IkB Peptid-antibody;
Incubation for 45 min and transfer to protein-G-coated plate;
Incubation for 90 min followed by 3× washing;
Addition of streptavidin-HRP, then incubation 45 min followed by 6× washing;
Addition of TMB and Incubation for 15 min; and
Stop solution and read using photometer.
In general terms: An ELISA detects its analyte on a solid surface through an enzyme-linked reagent.

Data set [2] deals with IL-1β-induced NF-κB activation. The data set can be described thus: NF-κB-Luciferase Reporter Mouse Model, dose response determination. In kind it is in vivo, Balb/c female mice. The conditions noted are these: for effect on IL-1β-induced NF-κB activity: intranasal dosing 0.3-10 mg/kg, FIGS. 1 and 2. How it is done:
A. NF-κB-Luciferase Reporter Mouse Model Methods employed for mouse imaging studies with Compound (A) and Compound (B). General Description Compounds were used as nanomilled suspensions in 0.2% Tween-80 in PBS and were dosed through the intranasal route. Intranasal drug and inflammatory stimulus administration: Mice are anesthetized in 4% is isoflurane gas in oxygen. A volume of 25 μl is applied to each nostril and the mice are allowed to breathe in the suspension. Balb/c female mice at 6-8 weeks of age were used for studies in which AdV-NFκB-luciferase reporter was instilled in the lung. To imagine mice, they are anesthetized with 4% isoflurane in oxygen. Luciferin is delivered i.p. at a dose of 150 mg/kg. 10 minutes after luciferin injection, the animals are imaged in an IVIS200 system (Xenogen) with a one-minute bioluminescent exposure. Alternatively, 10-15 minutes post luciferin administration, mice are rapidly euthanized and internal tissues are dissected and imaged ex vivo. B. Dose Response Determination 1-2×10^8 pfu adenovirus-NFκB-luciferase is delivered intranasally 3-5 days prior to stimulation (i.n.) with an inflammatory stimulus (IL-1β or LPS). Animals are dosed i.n. with 0.3-10 mg/kg of compound 30 min—1 h prior to challenge with 0.5 μg LPS or 50 ng IL-1β. Animals are then imaged once or several times from 1 h to 24 h after the inflammatory stimulus is administered.
A general note: A reporter such as luciferase makes a cellular process visible.

The nature of data set [3]: Pharmacokinetic procedures: compound levels in lung and plasma after intra-tracheal instillation. In kind it is in vivo, Male Hartley guinea pigs. The following applies: for systemic exposure after intratracheal administration: i.t. administration; for Kp at 1 h: male, Hartley, guinea pig, lung and plasma, other: intra-tracheal instillation, i.t. instillation 0.01-0.3 mg/kg, 1 h after dosing, depending on the dose, read-out: lung to plasma ratio. How it is done: C. Pharmacokinetic Procedures
Male Hartley guinea pigs (450-550 g) previously sensitized with ovalbumin were used for the determination of compound levels in lung and plasma. Nanomilled suspensions of Compound (A) and Compound (B) were dosed via intra-tracheal instillation at 0.01, 0.03, 0.1 and 0.3 mg/kg. One hour after dosing, animals were euthanized (Euthasol), and 1 mL blood samples were obtained by cardiac puncture and collected into heparin-coated syringes. Plasma was separated from the cellular component of the blood by centrifugation, and stored at −80° C. until assayed. Lungs were dissected out, blotted dry, weighted and stored in 20-25 mL glass vials individually at −80° C. until assayed for compound levels.
The lung to plasma ratio for Compound (A) ranges from 143 to 284 (depending on the dose) whereas the lung to plasma ratio for Compound (B) ranges from 13 to 44 (depending on the dose). These ratios were obtained by dividing the lung compound levels to that of the corresponding plasma levels at the same dose.

[4] abbreviates: read-out: IC50 (nM) 1 mM ATP, 1 mM ATP.
Setting [5] is: read-out: IC50 (nM) 50 μM ATP, 50 μM ATP.

Consider `CNc1nccc(-c2cc3cc(C(=O)N[C@@H](CN(c4ccccc4)c4ncccn4)C(=O)O)ccc3[nH]2)n1` [(D)], for which the IC50 in data set [1] (setting [4]) came out at 3.8 nM.
As to `CNc1nccc(-c2cc3cc(C(=O)N[C@@H](CN(c4ccccc4)c4ccccn4)C(=O)NOC)ccc3[nH]2)n1` [Compound (B)], the IC50 in data set [1] (setting [5]) was found to be 0.8 nM. In addition, the IC50 in data set [1] (setting [4]) was 56.4 nM. The “effect on IL-1β-induced NF-κB activity” value in data set [2] was “inhibited in a dose-dependent manner”. Moreover, in data set [3] (0.3 mg/kg i.t., FIG. 3), the “lung exposure after i.t. instillation” value is on record as “low relative to Compound (A)”. Moreover, in data set [3], the “systemic exposure after oral administration” value was “highly systemically available”, the “systemic exposure after intratracheal administration” value is “highly systemically distributed” and the Kp at 1 h lay in the range of 13 to 44.
As to `CNc1nccc(-c2cc3cc(C(=O)N[C@@H](CN(c4ccccc4)c4ccccn4)C(=O)O)ccc3[nH]2)n1` [Compound (A), 2-{[2-(2-Methylamino-pyrimidin-4-yl)-1H-indole-5-carbonyl]-amino}-3-(phenyl-pyridin-2-yl-amino)-propionic acid], the IC50 in data set [1] (setting [5]) came out at 0.4 nM. The IC50 in data set [1] (setting [4]) was found to be 0.08 nM. In addition, the ED50 in data set [2] (Mus musculus, intranasal nanomilled suspension, 0.3-10 mg/kg, IL-1β challenge, lung bioluminescence, read-out: estimated ED50, IL-1β-induced NF-κB activation) is around 1 mg/kg. Also, the “effect on IL-1β-induced NF-κB activity” value in data set [2] is “inhibited in a dose-dependent manner”. In addition, in data set [3], the “systemic exposure after oral administration” value is “low systemic exposure”, the “systemic exposure after intratracheal administration” value is reported as “low systemic exposure” and the Kp at 1 h fell in the range of 143 to 284.
With `CNc1nccc(-c2cc3cc(C(=O)N[C@@H](CN(c4ccccc4)c4ccccn4)C(=O)OC)ccc3[nH]2)n1` [(C)], the IC50 was 16.8 nM in data set [1] (setting [5]) and 378 nM in data set [1] (setting [4]).
